Read-outs that look alike come from different tables or passages of the source.
Columns and labels:
[1] = test system: anaesthetised normotensive rat; experiment: Hypotensive activity in the anaesthetised normotensive rat (IV); format: in vivo; conditions: for ED30: Rattus norvegicus, read-out: Reduction in mean arterial pressure ED30
Method: In order to evaluate the in vivo activity, some of the compounds of the invention were administered (IV) in bolus form to the normotensive rat anaesthetised with urethane plus ketamine. The compounds were administered in at least three doses in experiments performed in duplicate so as to enable the calculation of ED30 values, that is, the dose in mg/kg that reduces the mean basal arterial pressure by 30%. The compounds of the invention, and several reference standards, were dissolved in dilute hydrochloric acid at a physiologically acceptable pH, and physiological solution was administered in a volume of 3 ml/kg. Evaluations were made at two time periods, that is, the intervals 0-30 min and 30-60 min after administration.

[2] = target: alpha1A + alpha1C adrenergic receptor (human prostate); experiment: [3H]-prazosin binding in human prostate; conditions: alpha1A + alpha1C subtype, pH 7.5, 30 min, 25° C., read-out: Inhibition of the binding of [3H]-prazosin IC50
[3] = target: T1, alpha1A adrenergic receptor (rat GSM) (Rattus norvegicus, UniProt P43140); experiment: [3H]-prazosin binding in rat submaxillary glands (GSM); conditions: alpha1A subtype, pH 7.4, 45 min, 25° C., read-out: Inhibition of the binding of [3H]-prazosin IC50
T1 sequence (P43140 1-466): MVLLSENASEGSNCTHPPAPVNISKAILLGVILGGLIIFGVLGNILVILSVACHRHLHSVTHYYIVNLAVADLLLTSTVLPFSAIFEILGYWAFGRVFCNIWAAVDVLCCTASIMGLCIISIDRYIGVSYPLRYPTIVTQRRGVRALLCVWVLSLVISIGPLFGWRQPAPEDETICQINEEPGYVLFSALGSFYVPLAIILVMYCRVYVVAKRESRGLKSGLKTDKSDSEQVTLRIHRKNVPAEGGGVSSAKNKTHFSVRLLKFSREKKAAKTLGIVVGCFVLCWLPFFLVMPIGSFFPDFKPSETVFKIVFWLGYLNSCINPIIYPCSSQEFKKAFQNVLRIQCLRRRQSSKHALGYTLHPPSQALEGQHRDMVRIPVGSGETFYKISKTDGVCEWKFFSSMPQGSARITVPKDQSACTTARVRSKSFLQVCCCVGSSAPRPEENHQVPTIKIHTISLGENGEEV

[4] = test system: spontaneously hypertensive (SHR) rat; experiment: Anti-hypertensive activity in the spontaneously hypertensive (SHR) rat (oral); format: in vivo; conditions: for ED20: Rattus norvegicus, 2 h, read-out: Systolic pressure ED20 (0-120 min)
Source text: Animals having a mean basal systolic pressure of not less than 180 mmHg were used.

[5] = target: T2, 5-HT2 receptors (isolated rabbit aorta) (Oryctolagus cuniculus, UniProt G1SYA7); experiment: Antagonism of serotonin-induced contraction of isolated rabbit aorta
T2 construct: Four rings formed from rabbit aorta were joined together to form a chain; from tissue; host or cells: isolated rabbit aorta rings
Method: The antagonist activity of some of the compounds of the invention on the contractile activity of seratonin on isolated rabbit aorta, effected principally by way of the 5-HT2 receptors, is reported here by way of example. The method of Feniuk et al [Br. J. Pharmacol. (1985), 86, 697-704] was used, with slight modifications. Four rings formed from rabbit aorta were joined together to form a chain; the preparation was placed in an isolated organ bath in the presence of Krebs at 37° C. and attached to an isometric transducer, a tension of 2 g being applied and oxygenation was carried out continuously with O2 --CO2 (95-5 v/v). A seratonin concentration(0.3 μM) was used that was capable of causing sub-maximal contraction of the preparation. […] The results obtained in this way are given in Table 4 below which, for several of the compounds of the invention gives IC50 values calculated by the regression method on a set of at least 2 experiments at 5 different concentrations for each of the compounds examined, these being compared with values obtained for several reference compounds.

[6] = target: T3, alpha1B adrenergic receptor (rat liver) (Rattus norvegicus, UniProt P15823); experiment: [3H]-prazosin binding in rat liver
T3 sequence (P15823 1-515): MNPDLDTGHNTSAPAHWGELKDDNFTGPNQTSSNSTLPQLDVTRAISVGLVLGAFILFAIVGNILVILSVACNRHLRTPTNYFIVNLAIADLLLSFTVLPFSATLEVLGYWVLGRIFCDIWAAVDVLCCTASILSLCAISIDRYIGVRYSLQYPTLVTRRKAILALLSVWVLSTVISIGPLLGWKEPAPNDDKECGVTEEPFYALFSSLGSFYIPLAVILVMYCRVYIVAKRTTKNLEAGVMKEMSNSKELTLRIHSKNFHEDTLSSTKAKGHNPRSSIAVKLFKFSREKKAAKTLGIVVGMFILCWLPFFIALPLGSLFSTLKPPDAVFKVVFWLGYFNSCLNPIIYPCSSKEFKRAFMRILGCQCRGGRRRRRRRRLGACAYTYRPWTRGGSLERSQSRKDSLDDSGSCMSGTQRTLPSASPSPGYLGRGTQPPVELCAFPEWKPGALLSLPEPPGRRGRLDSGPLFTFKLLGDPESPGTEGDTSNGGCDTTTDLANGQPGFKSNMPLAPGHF

[7] = test system: alpha1A, alpha1B and alpha1C adrenergic receptor subtypes; experiment: [3H]-prazosin binding, alpha1 subtypes together (Table 3 overall); conditions: reference compounds versus compounds of the invention/prazosin
[8] = 0.5 h, IV bolus, interval 0-30 min
[9] = 1 h, IV bolus, interval 30-60 min
[10] = read-out: Inhibitory effect (IC50) on the contraction caused by 0.3 μM serotonin, isolated rabbit aorta, 37° C., compound 10 min before agonist, limits (p < 0.05)
[11] = read-out: Inhibition of the binding of [3H]-prazosin IC50, rat liver, alpha1B subtype
[12] = isolated rabbit aorta, 37° C., compound 10 min before agonist, limits (p < 0.05)

T2 sequence (G1SYA7 1-469): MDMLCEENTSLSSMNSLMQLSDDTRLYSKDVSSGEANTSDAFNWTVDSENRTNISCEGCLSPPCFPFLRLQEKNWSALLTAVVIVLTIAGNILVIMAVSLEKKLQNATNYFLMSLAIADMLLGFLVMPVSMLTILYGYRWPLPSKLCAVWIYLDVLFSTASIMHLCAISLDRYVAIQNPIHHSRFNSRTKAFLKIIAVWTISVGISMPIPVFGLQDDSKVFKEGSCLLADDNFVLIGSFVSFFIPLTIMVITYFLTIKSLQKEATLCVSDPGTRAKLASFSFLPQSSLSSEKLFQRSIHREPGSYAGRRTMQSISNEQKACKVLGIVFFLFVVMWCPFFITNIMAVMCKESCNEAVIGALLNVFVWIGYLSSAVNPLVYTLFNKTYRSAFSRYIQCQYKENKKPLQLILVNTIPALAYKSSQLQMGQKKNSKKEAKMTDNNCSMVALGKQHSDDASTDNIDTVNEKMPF

| IC50 [2] [nM] | IC50 [3] [nM] | Cardiac frequency, max effect at 3 mg/kg [4] | IC50 [5, 10] [nM] | IC50 [6, 11] [nM] | IC50 [5, 12] [nM] | IC50 ([5]; rabbit aorta, 0.3 μM serotonin, conversion of 3.1 μg/ml, read-out: IC50, 5-HT2 antagonist activity) [nM] | times less than ketanserine (IC50) ([5]; rabbit aorta, versus ketanserine IC50 0.09 μg/ml) | IC50 [6] [nM] | Structure (SMILES) | ED30 [1, 8] [mg/kg] | ED30 [1, 9] [mg/kg] | Systolic pressure, max effect at 3 mg/kg [4] [% vs basal] | ED20 ([4]; 0-120 min, NC: not calculable) [mg/kg] | hypotensive activity compared with prazosin/compounds (in words) ([1]; IV bolus) | ED30 ([1]; iv, 0.5 h) [mg/kg] | ED30 ([1]; iv, 1 h) [mg/kg] | times less powerful (on average) [7] [times] | anti-hypertensive action (in words) [4] | Systolic pressure ED20 (0-120 min) ([4]; 0-120 min, NC: not calculable) | 5-HT2-antagonist activity (in words) ([5]; rabbit aorta) |
| --- | --- | --- | --- | --- | --- | --- | --- | --- | --- | --- | --- | --- | --- | --- | --- | --- | --- | --- | --- | --- |
| 3.8 | 3.1 | +0.6 % vs basal | 32700 | 1.7 |  |  |  |  | COc1cc2nc(N3CCC(c4ccco4)CC3)nc(N)c2cc1OC [Compound 4] | 0.08 | 0.1 | -15.5 | 13.1 |  |  |  |  |  |  |  |
| 10.8 | 10.7 |  | 73400 | 14 |  |  |  |  | CCOc1ccccc1C1CCN(c2nc(N)c3cc(OC)c(OC)cc3n2)CC1 [Compound 3] | 0.32 | 0.35 |  |  |  |  |  |  |  |  |  |
| 1.7 | 3.5 | -0.2 % vs basal |  |  | 8410 | 7600 | approximately 30 times | 2.1 | COc1cc2nc(N3CCC(c4ccc(C)o4)CC3)nc(N)c2cc1OC [Compound 5] | 0.03 | 0.03 | -22.1 | 2 |  |  |  |  | about as powerful as prazosin |  |  |
| 2 | 6.1 | -0.8 % vs basal |  |  | 16500 |  |  | 13 | COc1cc2nc(N3CCC(c4ccccc4)CC3)nc(N)c2cc1OC [Compound 1] | 0.19 | 0.31 | -7.5 |  |  |  |  |  |  |  |  |

| Structure (SMILES) | IC50 [2] [nM] | IC50 [3] [nM] | Cardiac frequency, max effect at 3 mg/kg [4] | IC50 [5, 10] [nM] | IC50 [6, 11] [nM] | IC50 [5, 12] [nM] | IC50 ([5]; rabbit aorta, 0.3 μM serotonin, conversion of 3.1 μg/ml, read-out: IC50, 5-HT2 antagonist activity) [nM] | times less than ketanserine (IC50) ([5]; rabbit aorta, versus ketanserine IC50 0.09 μg/ml) | IC50 [6] [nM] | ED30 [1, 8] [mg/kg] | ED30 [1, 9] [mg/kg] | Systolic pressure, max effect at 3 mg/kg [4] [% vs basal] | ED20 ([4]; 0-120 min, NC: not calculable) [mg/kg] | hypotensive activity compared with prazosin/compounds (in words) ([1]; IV bolus) | ED30 ([1]; iv, 0.5 h) [mg/kg] | ED30 ([1]; iv, 1 h) [mg/kg] | times less powerful (on average) [7] [times] | anti-hypertensive action (in words) [4] | Systolic pressure ED20 (0-120 min) ([4]; 0-120 min, NC: not calculable) | 5-HT2-antagonist activity (in words) ([5]; rabbit aorta) |
| --- | --- | --- | --- | --- | --- | --- | --- | --- | --- | --- | --- | --- | --- | --- | --- | --- | --- | --- | --- | --- |
| COc1cccc(OC)c1OCCNCC1COc2ccccc2O1 (stereo not shown) [WB-4101, reference compound] |  | 16.5 | -5.7 % vs basal |  |  | > 145000 |  |  |  |  |  | -2.6 |  | less active | 0.13 | 0.29 | 10 to 30 | inactive | INACTIVE | inactive until higher doses (50 μg/ml) |

Reference: patent US5985885A, “Quinazoline-4-amino-2-(piperidine-1-yl-4-substituted) derivatives having antihypertensive activity, a method for their preparation and their pharmaceutical use” (priority 1996, dated 1999)
